According to patent US12358999B2, “Protein recognizing drug moiety of antibody-drug conjugate” (DAIICHI SANKYO COMPANY, LIMITED, priority 2018, dated 2025):
Structures can show the parent of a compound that is named as a salt.

B1: rabbit chimeric antibody 1A3: rabbit chimeric antibody derived from mouse antibody 1A3; heavy chain SEQ ID NO: 19, light chain SEQ ID NO: 20 (antibody)
heavy: MKHLWFFLLLVAAPRWVLSEVKLVESGGGLVQPGGSRKLSCAASGFTFSDYGMVWIRQAPGRGLEWVAYISSGSSAIYYADTVKGRFTISRDNPKNTLFLQMNSLRSEDSAMYFCARPPRYDVYSAWFAYWGQGTLVTVSAGQPKAPSVFPLAPCCGDTPSSTVTLGCLVKGYLPEPVTVTWNSGTLTNGVRTFPSVRQSSGLYSLSSVVSVTSSSQPVTCNVAHPATNTKVDKTVAPSTCSKPTCPPPELLGGPSVFIFPPKPKDTLMISRTPEVTCVVVDVSQDDPEVQFTWYINNEQVRTARPPLREQQFNSTIRVVSTLPITHQDWLRGKEFKCKVHNKALPAPIEKTISKARGQPLEPKVYTMGPPREELSSRSVSLTCMINGFYPSDISVEWEKNGKAEDNYKTTPAVLDSDGSYFLYNKLSVPTSEWQRGDVFTCSVMHEALHNHYTQKSISRSPGK
light: MVLQTQVFISLLLWISGAYGDIVMTQSHKFMSTSVGDRVSITCKASQDVGSAVVWYQQKPGHSPDLLIYWASTRHTGVPDRFTGSGSGTDFTLTIGNVQSEDLADYFCQQYSSYPVTFGGGTKLEIKRDPVAPSVLLFPPSKEELTTGTATIVCVANKFYPSDITVTWKVDGTTQQSGIENSKTPQSPEDNTYSLSSTLSLTSAQYNSHSVYTCEVVQGSASPIVQSFNRGDC

Key:
[1] = tested on: sera of BALB/c mice and BDF1 mice after immunization; experiment: Inhibition ELISA of immunized mouse sera on immobilized antigen protein (2); assay type: binding; details: sera diluted 50000 fold; compound 12.5-100 μg/mL
Experimental: To the sera of BALB/c mice (4 individuals) and BDF1 mice (4 individuals) after immunization through four administrations, compound (6), compound (7) and compound (1) as positive controls and compound (8) as a negative control were added and the unabsorption rate to antigen protein (2) was calculated. The mouse sera diluted to 50000 fold and compound (6), compound (8), compound (7) and compound (1), which were prepared to have a concentration of 12.5, 25, 50 and 100 μg/mL, were mixed and allowed to react at 4° C. overnight, and then, added to ELISA immunoplates having the antigen protein (2) immobilized thereon and allowed to react at 37° C. for 30 minutes. After washing, anti-mouse IgG-HRP was allowed to react at 37° C. for 30 minutes. After washing, an OPD solution was added. After termination of color development, absorbance at 490 nm was measured. The unabsorption rate was calculated in accordance with the following expression: Unabsorption rate(%)=(a/b)×100
a: Absorbance of positive control or negative control at an addition concentration of 12.5 μg/mL
b: Absorbance of a sample not containing positive control or a sample not containing a negative control

mouse antibody 1A3 = experiment: Competitive inhibition with HER2-ADC (I), chemical structure recognized by mouse antibody 1A3 (Gyrolab); assay type: binding; details: compound 1 and 100 μg/mL dilution solutions; response at HER2-ADC (I) 250 ng/mL
Excerpt: The chemical structure to be recognized by mouse antibody 1A3 was checked by competitive inhibition with HER2-ADC (I) using Gyrolab xP workstation (GYROS PROTEIN Technologies). As the compound for use in competitive inhibition, compound (1), compound (2), compound (7), compound (8), compound (9), compound (10), compound (11), Topotecan and Rubitecan were selected.
As the capture reagent, mouse antibody 1A3 labeled with biotin by a labeling kit (ChromaLink Biotin Protein LABELING Kit, Solulink) was used. The concentration thereof was controlled to be 700 nM with 0.1% PS20-containing PBS. The compounds for use in competitive inhibition, compound (1), compound (2), compound (7), compound (8), compound (9), compound (10), compound (11), Topotecan and Rubitecan were separately dissolved in DMSO. The solutions each was diluted with 10% or 20% DMSO in Rexxip HN (GYROS PROTEIN Technologies) to prepare 0, 1 and 100 μg/mL dilution solutions. To each of them, the 700 nM mouse antibody 1A3 solution was added in an equal amount. The mixture was stirred and allowed to react at room temperature in a dark place for one hour or more. The concentration of HER2-ADC (I) was controlled with Rexxip HN to be 0, 0.244, 0.977, 3.91, 15.6, 62.5, 250 and 1000 ng/mL. As the detection reagent, Mouse Anti-(Anti-HER2 Ab) idiotype Ab (13C1) (IBL) was labeled by DyLight650 (registered trademark) labeling kit and put in use. The concentration thereof was controlled with Rexxip F (GYROS PROTEIN Technologies) to be 10 nM. The above solution was set at Gyrolab xP workstation and measurement was carried out by use of Gyrolab Bioaffy 200 at 200-3W-002-A (PMT5). The regression analysis was carried out by use of Gyrolab Evaluator 3.4.0.24 in 4-parametric logistic model (weight: Response). The calibration curve of HER2-ADC (I) was prepared per concentration of the competitive inhibition compound. The inhibition rate (%) was calculated by comparing the response at an HER2-ADC (I) concentration of 250 ng/mL to that of the case where no compound was added (concentration 0 ng/mL).

topoisomerase I = target: T1, topoisomerase I (Homo sapiens, UniProt P11387); details: cited from earlier work
T1 sequence (P11387 1-765): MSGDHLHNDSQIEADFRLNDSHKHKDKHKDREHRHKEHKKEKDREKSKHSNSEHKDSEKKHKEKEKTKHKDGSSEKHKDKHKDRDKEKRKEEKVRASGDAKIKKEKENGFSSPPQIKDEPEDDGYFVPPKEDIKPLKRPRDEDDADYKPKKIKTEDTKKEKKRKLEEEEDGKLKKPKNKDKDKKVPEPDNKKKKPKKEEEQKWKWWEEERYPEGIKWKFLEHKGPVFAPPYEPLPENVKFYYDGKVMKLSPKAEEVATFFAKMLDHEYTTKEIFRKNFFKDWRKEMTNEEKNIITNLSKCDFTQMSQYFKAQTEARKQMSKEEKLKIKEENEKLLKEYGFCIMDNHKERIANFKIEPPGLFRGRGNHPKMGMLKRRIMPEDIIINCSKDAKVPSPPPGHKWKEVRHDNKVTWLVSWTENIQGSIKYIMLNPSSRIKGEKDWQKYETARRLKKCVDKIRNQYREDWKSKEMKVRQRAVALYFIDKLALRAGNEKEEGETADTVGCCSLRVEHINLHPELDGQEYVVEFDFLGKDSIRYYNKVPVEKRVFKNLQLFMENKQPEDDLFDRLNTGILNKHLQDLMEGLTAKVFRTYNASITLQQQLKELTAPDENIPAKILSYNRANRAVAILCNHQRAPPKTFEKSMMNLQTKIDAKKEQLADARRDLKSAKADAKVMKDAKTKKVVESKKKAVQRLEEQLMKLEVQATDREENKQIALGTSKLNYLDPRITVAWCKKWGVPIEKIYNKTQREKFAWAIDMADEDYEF

GPR20-ADC (I) = experiment: Immunostaining with rabbit chimeric antibody 1A3, GIST-T1/GPR20 subcutaneous tumor after GPR20-ADC (I); assay type: binding, nude mouse
TROP2-ADC (I) = experiment: Immunostaining with rabbit chimeric antibody 1A3, FaDu subcutaneous tumor after TROP2-ADC (I); assay type: binding, nude mouse
Experimental: To an immunodeficient mouse (nude mouse), human head and neck cancer cell line FaDu was subcutaneously transplanted. After TROP2-ADC (I) was administered, the tumor tissue was taken to prepare paraffin-embedded specimens. Then, stainability of rabbit chimeric antibody 1A3 was examined. The tumor tissue was taken from a nude mouse to which an anti-TROP2 antibody (an antibody comprising a heavy chain consisting of amino acid sequence of amino acid residues 20 to 470 of SEQ ID NO: 25 and a light chain consisting of amino acid sequence of amino acid residues 21 to 234 of SEQ ID NO: 26, hereinafter referred to as “Anti-TROP2 Ab”) and used as a negative control. Deparaffinization and antigen activation were carried out using Autostainer Link pretreatment system (PT Link, manufactured by DAKO) and an antigen retrieval solution (Target Retrieval Solution Low pH, manufactured by DAKO) at 97° C. for 40 minutes. The following staining operation was carried out using an automatic staining device (Dako Autostainer Link 48: manufactured by DAKO) at room temperature. After washing once with EnVision FLEX WASH BUFFER (manufactured by DAKO), REAL Peroxidase-Blocking Solution (manufactured by DAKO) was added; incubation was carried out for 5 minutes; and washing was carried out once with EnVision FLEX WASH BUFFER. […]

Molecule	inhibition effect on binding of mouse sera to antigen protein (2) (unabsorption rate) [1]	competitive inhibition of recognition of mouse antibody 1A3 to HER2-ADC (I) (inhibition rate, FIG. 41) (mouse antibody 1A3)	further results
NCCCC(=O)NC1CCCCC1 [compound (8), 4-amino-N-cyclohexyl-butanamide Hydrochloride]	in none of the plasmas, a high inhibition effect	did not exhibit competitive inhibition	–
CC[C@@]1(O)C(=O)OCc2c1cc1n(c2=O)Cc2c-1nc1cc(F)c(C)c3c1c2[C@@H](NC(=O)CCCNC(=O)CCCCCCC(=O)ON1C(=O)CCC1=O)CC3 [compound (6), 8-[(2,5-dioxopyrrolidin-1-yl)oxy]-N-(4-{[(1S,9S)-9-ethyl-5-fluoro-9-hydroxy-4-methyl-10,13-dioxo-2,3,9,10,13,15-hexahydro-1H,12H-benzo[de]pyrano[3′,4′:6,7]indolizino[1,2-b]quinolin-1-yl]amino}-4-oxobutyl)-8-oxooctane Amide]	high inhibition effect	–	–
CC[C@]1(O)c2cc3n(c(=O)c2COC1O)Cc1c-3nc2cc(F)c(C)c3c2c1[C@@H](NC(=O)CCCN)CC3 (stereo partly drawn) [compound (7), 4-amino-N-[(1S,9S)-9-ethyl-5-fluoro-9,10-dihydroxy-4-methyl-13-oxo-2,3,9,10,13,15-hexahydro-1H,12H-benzo[de]pyrano[3′,4′:6,7]indolizino[1,2-b]quinolin-1-yl] butanamide Trifluoroacetate]	in some individuals have a high inhibition effect	strong competitive inhibition	–
CC[C@@]1(O)C(=O)OCc2c1cc1n(c2=O)Cc2c-1nc1ccc(C)c3c1c2CCC3 [compound (9)]	–	strong competitive inhibition	–
CC[C@@]1(O)C(=O)OCc2c1cc1n(c2=O)Cc2c-1nc1cccc3c1c2C(N)CC3 (some centres unmarked) [compound (10)]	–	did not exhibit competitive inhibition	–
CC[C@@]1(O)C(=O)OCc2c1cc1n(c2=O)Cc2cc3c([N+](=O)[O-])cccc3nc2-1 [Rubitecan]	–	did not exhibit competitive inhibition	–
CC[C@@]1(O)C(=O)OCc2c1cc1n(c2=O)Cc2cc3c(CN(C)C)c(O)ccc3nc2-1 [Topotecan]	–	did not exhibit competitive inhibition	–
CC[C@@]1(O)C(=O)OCc2c1cc1n(c2=O)Cc2c-1nc1cc(F)c(C)c3c1c2[C@@H](N)CC3 [compound (1), (1S,9S)-1-amino-9-ethyl-5-fluoro-1,2,3,9,12,15-hexahydro-9-hydroxy-4-methyl-10H,13H-benzo[de]pyrano[3′,4′:6,7]indolizino[1,2-b]quinoline-10,13-dione, reference compound]	high inhibition effect	strong competitive inhibition	topoisomerase I inhibitory activity (topoisomerase I): topoisomerase I inhibitory activity
CC[C@@]1(O)C(=O)OCc2c1cc1n(c2=O)Cc2c-1nc1cc(F)c(CO)c3c1c2[C@@H](N)CC3 [compound (11)]	–	did not exhibit competitive inhibition	–
B1	–	–	stainability to subcutaneous tumor tissue (GPR20-ADC (I); animal administered with GPR20-ADC (I)): satisfactory stainability; stainability to subcutaneous tumor tissue (GPR20-ADC (I); animal not administered with GPR20-ADC (I)): did not show stainability; stainability to subcutaneous tumor tissue (TROP2-ADC (I); animal administered with TROP2-ADC (I), antibody 0.1 μg/mL): satisfactory stainability; stainability to subcutaneous tumor tissue (TROP2-ADC (I); animal administered with anti-TROP2 Ab (negative control tissue)): did not show stainability
